Drawing on PubChem BioAssay (NCI), this text covers TGI and GI50 for 19 compounds.

Some test systems named below: SNB-19 CNS; TK-10 renal; SF-295 CNS; NCI-H226 lung; M19-MEL melanoma; SW-620 colon; ACHN renal; RPMI-8226 leukemia; CAKI-1 renal; UACC-257 melanoma.
Common to all, as to experiment: NCI tumour cell line growth inhibition, 48 h

Several values for one entry are separate records, joined by “and”; a condition that tells them apart may be missing. Equal entries are not always repeated.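 96-well plates; 48 h exposure; 5 concentrations. Endpoints by linear interpolation between flanking doses. Not reached: highest tested concentration assigned. Abbreviation: GI50, concentration required for 50% inhibition of growth. TGI: concentration producing complete growth inhibition.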

For `COc1cc(C)c(CC/C(C)=C/Cc2cc(O)ccc2O)c(C)c1C`, the TGI in the assay with SNB-19 CNS, in the assay on TK-10 renal, with SF-295 CNS, in the assay on NCI-H226 lung, with M19-MEL melanoma and in the assay with SW-620 colon was > 25 µM throughout. In addition, the TGI in the assay on ACHN renal, in the assay on RPMI-8226 leukemia and with CAKI-1 renal was > 25 µM throughout.

Turning to `CN(C)c1nc(Oc2nc(N(C)C)nc(N(C)C)n2)nc(N(C)C)n1`, the TGI in the assay with SNB-19 CNS, with TK-10 renal, in the assay with SF-295 CNS, in the assay with NCI-H226 lung, with M19-MEL melanoma and with SW-620 colon was > 100 µM throughout. Further, the TGI in the assay with ACHN renal, with RPMI-8226 leukemia, in the assay on UACC-257 melanoma and in the assay with CAKI-1 renal was > 100 µM each time.

`Cc1nc2ccccc2nc1CC(=O)C(=O)Nc1ccc(Cl)cc1Cl`: the TGI in the assay on SNB-19 CNS, with TK-10 renal, in the assay on SF-295 CNS, in the assay on M19-MEL melanoma, in the assay with SW-620 colon and with ACHN renal was > 100 µM each time. In addition, the TGI in the assay on RPMI-8226 leukemia, with UACC-257 melanoma and in the assay on CAKI-1 renal was > 100 µM in each case.

Turning to `C[C@]12CCC3[C@@H](CCC45OC4C(=O)CC[C@]35C)C1Cc1cnn(-c3ccc(F)cc3)c1N2` (stereo partly specified), the TGI with SNB-19 CNS was 92.6 µM; in the assay on TK-10 renal, > 100 µM; with SF-295 CNS, > 100 µM; with NCI-H226 lung, > 100 µM; in the assay with M19-MEL melanoma it was > 100 µM; with SW-620 colon, 97 µM. For the same compound, the TGI in the assay on ACHN renal is > 100 µM; in the assay with RPMI-8226 leukemia, 54.7 µM; with UACC-257 melanoma, > 100 µM.

Turning to `O=[N+]([O-])c1cccc(C2=NN(c3ccccc3)C3c4cc(Br)ccc4OCC23)c1` (stereo unspecified), the TGI in the assay on SNB-19 CNS, in the assay with TK-10 renal, with SF-295 CNS, in the assay on M19-MEL melanoma, in the assay on SW-620 colon and in the assay with ACHN renal was > 100 µM each time. The TGI in the assay with RPMI-8226 leukemia and in the assay on UACC-257 melanoma was > 100 µM throughout.

For the compound `Cc1c2ccnc(C(N)=O)c2c(C)c2c1[nH]c1ccccc12`, the GI50 with SNB-19 CNS is 4.45 µM; in the assay on SF-295 CNS, 4.37 µM; in the assay with NCI-H226 lung, 3.28 µM; in the assay with M19-MEL melanoma it was 4.7 µM; in the assay with RPMI-8226 leukemia, 3.58 µM; with CAKI-1 renal, 4.82 µM. Further, the TGI in the assay on SNB-19 CNS is 46.9 µM and 19.9 µM; in the assay on TK-10 renal, 22.5 µM; in the assay with SF-295 CNS, 25.6 µM and 22.3 µM; with NCI-H226 lung, 19.8 µM and 15.7 µM; in the assay on M19-MEL melanoma it was 25.2 µM and 17.4 µM; in the assay with SW-620 colon, 45.6 µM and 40.8 µM. In addition, the TGI was 13.8 µM in the assay with ACHN renal; 34.5 µM and 16.4 µM in the assay with RPMI-8226 leukemia; 35.1 µM in the assay on UACC-257 melanoma; 9.58 µM and 26.4 µM in the assay with CAKI-1 renal.

Regarding `CCCCCCCC(=O)OCC(COC(=O)C(C)(C)C)OC(=O)Cc1ccccc1` (stereo unspecified), the TGI with SNB-19 CNS, in the assay on TK-10 renal, with SF-295 CNS, in the assay on NCI-H226 lung, in the assay with M19-MEL melanoma and in the assay with SW-620 colon was > 100 µM in each case. Moreover, the TGI in the assay with ACHN renal, in the assay on RPMI-8226 leukemia and with CAKI-1 renal was > 100 µM throughout.

Regarding `CC1=NN(C(=O)Cc2ccccc2)C(=O)/C1=C\c1ccc(O)cc1`, the TGI with SNB-19 CNS, with TK-10 renal, in the assay with SF-295 CNS, in the assay with NCI-H226 lung, with M19-MEL melanoma and in the assay on SW-620 colon was > 100 µM in each case. Moreover, the TGI in the assay on ACHN renal, with RPMI-8226 leukemia, in the assay with UACC-257 melanoma and in the assay on CAKI-1 renal was > 100 µM throughout.

Consider `CCOC(=O)C1C(c2ccc(Cl)cc2Cl)NC(c2ccc(C)cc2)C(C(=O)OC)S1(=O)=O` (stereo unspecified), for which the TGI in the assay with SNB-19 CNS, in the assay with TK-10 renal, in the assay on SF-295 CNS, with NCI-H226 lung, in the assay with M19-MEL melanoma and in the assay with SW-620 colon was > 100 µM throughout. The TGI with ACHN renal, in the assay with RPMI-8226 leukemia, in the assay with UACC-257 melanoma and in the assay with CAKI-1 renal was > 100 µM each time.

Turning to `Cc1c(N2CCOCC2)nc2ccc(Cl)cc2c1-c1ccccc1`, the TGI with SNB-19 CNS, with TK-10 renal, with SF-295 CNS, in the assay with M19-MEL melanoma, with SW-620 colon and in the assay with ACHN renal was > 100 µM throughout. Besides, the TGI with RPMI-8226 leukemia, with UACC-257 melanoma and in the assay on CAKI-1 renal was > 100 µM in each case.

Turning to `COc1cc2ccc3c4cc(OC)c(OC)cc4c[n+](C)c3c2cc1O`, the TGI is > 100 µM with SNB-19 CNS; > 100 µM in the assay on TK-10 renal; > 100 µM in the assay on NCI-H226 lung; > 100 µM with M19-MEL melanoma; > 100 µM in the assay with SW-620 colon; > 76.6 µM with ACHN renal. Besides, the TGI with RPMI-8226 leukemia, in the assay with UACC-257 melanoma and in the assay with CAKI-1 renal was > 100 µM throughout.

Consider `Cc1cc([N+](=O)[O-])c(C)c2c1[nH]c1ccc(Cl)cc12`, for which the TGI with SNB-19 CNS, in the assay on TK-10 renal, in the assay on SF-295 CNS, in the assay with NCI-H226 lung, in the assay on M19-MEL melanoma and in the assay with SW-620 colon was > 100 µM in each case. Further, the TGI in the assay with ACHN renal, with RPMI-8226 leukemia, in the assay on UACC-257 melanoma and in the assay with CAKI-1 renal was > 100 µM each time.

Turning to `O=c1c(F)cn2c(=O)n1CCCCCCCn1c(=O)c(F)cn(c1=O)CCCCCCC2`, the TGI in the assay on SNB-19 CNS, in the assay with TK-10 renal, in the assay on SF-295 CNS, with NCI-H226 lung, in the assay with SW-620 colon and in the assay with ACHN renal was > 100 µM in each case. Moreover, the TGI in the assay on RPMI-8226 leukemia, with UACC-257 melanoma and with CAKI-1 renal was > 100 µM in each case.

As for `CN1CSC(=S)N(c2cccc(C(F)(F)F)c2)C1`, the TGI in the assay with SNB-19 CNS is 61 µM; in the assay on TK-10 renal it was 72.3 µM; in the assay on SF-295 CNS, 51.2 µM; in the assay on NCI-H226 lung it was 61.8 µM; in the assay on SW-620 colon it was > 100 µM; in the assay with ACHN renal, 36.5 µM. In addition, the values for the TGI in the assay with RPMI-8226 leukemia, in the assay with UACC-257 melanoma and in the assay with CAKI-1 renal were 39.4 µM, 50.7 µM and 74 µM, respectively.

Turning to `CCCCI(O)OS(=O)(=O)c1ccc(C)cc1`, the TGI in the assay on SNB-19 CNS, in the assay with TK-10 renal, in the assay with SF-295 CNS, in the assay with NCI-H226 lung, in the assay with SW-620 colon and with ACHN renal was > 100 µM each time. Besides, the TGI in the assay on RPMI-8226 leukemia, with UACC-257 melanoma and in the assay with CAKI-1 renal was > 100 µM throughout.

Consider `Cc1ccc2c(c1C)C(=O)C1(Cc3cc4c(cc3C1=O)CCC4)C2` (stereo unspecified), for which the TGI in the assay on SNB-19 CNS, in the assay on TK-10 renal, with SF-295 CNS, in the assay with NCI-H226 lung, in the assay with SW-620 colon and in the assay on ACHN renal was > 100 µM each time. For the same compound, the TGI with RPMI-8226 leukemia, with UACC-257 melanoma and with CAKI-1 renal was > 100 µM throughout.

In the case of `O=c1ccc2ccc(S)cc2o1`, the TGI in the assay on SNB-19 CNS, with TK-10 renal, with SF-295 CNS, in the assay on NCI-H226 lung, in the assay on SW-620 colon and in the assay on ACHN renal was > 100 µM throughout. The TGI in the assay with RPMI-8226 leukemia, with UACC-257 melanoma and in the assay on CAKI-1 renal was > 100 µM in each case.

For `NCCN1CCCCCc2ccccc21`, the TGI with SNB-19 CNS, in the assay with TK-10 renal, in the assay on SF-295 CNS, in the assay on NCI-H226 lung, with SW-620 colon and in the assay with ACHN renal was > 10 µM in each case. The TGI in the assay with RPMI-8226 leukemia, in the assay with UACC-257 melanoma and in the assay on CAKI-1 renal was > 10 µM each time.

Consider `O=c1[nH]c(NCc2ccncc2)nc2nc[nH]c12`, for which the TGI in the assay with SNB-19 CNS, in the assay on TK-10 renal, with SF-295 CNS, in the assay with NCI-H226 lung, with SW-620 colon and in the assay on ACHN renal was > 100 µM throughout. Also, the TGI in the assay with RPMI-8226 leukemia, in the assay with UACC-257 melanoma and in the assay on CAKI-1 renal was > 100 µM each time.
